# Laboratory results published in patent publication US6410572B1 (priority 2000, dated 2002).
# Tests used:
# [1] = test system: Phytophthora infestans; format: in vivo; conditions: 0.8 ppm active ingredient in the spray liquor; tomato leaves; after 6 days at 16-18° C.
# [2] = test system: Botrytis cinerea; test: Activity against Botrytis cinerea on bell peppers (fruit disks, protective spray); format: in vivo; conditions: green bell pepper disks, 4 days at 18° C.
# Procedure: The active ingredients, separately or together, are formulated as a 10% emulsion in a mixture of 63% by weight of cyclohexanone and 27% by weight of emulsifier, and diluted with water to the desired concentration.
# Evaluation is carried out by determining the infected leaf areas in percent. These percentages are converted into efficacies. The efficacy (W) is calculated as follows using Abbot's formula: […]
# α corresponds to the fungal infection of the treated plants in % and
# β corresponds to the fungal infection of the untreated (control) plants in %
# An efficacy of 0 means that the infection level of the treated plants corresponds to that of the untreated control plants; an efficacy of 100 means that the treated plants were not infected.
# The expected efficacies of the mixtures of the active ingredients were determined using Colby's formula [R. S. Colby, Weeds 15, 20-22 (1967)] and compared with the observed efficacies.
# Colby's formula: E=x+y−x·y/100
# Disks of green bell peppers were sprayed to runoff point with an aqueous preparation of active ingredient which had been prepared from a stock solution comprising 10% of active ingredient, 63% of cyclohexanone and 27% of emulsifier. 2 hours after the spray coating had dried on, the fruit disks were inoculated with a spore suspension of Botrytis cinerea containing 1.7×10^6 spores per ml of a 2% strength Biomalz solution. The inoculated fruit disks were subsequently incubated in humid chambers at 18° C. for 4 days. The Botrytis infection on the diseased fruit disks was then evaluated visually.
# [3] = 12.5 ppm active ingredient in the spray liquor
# [4] = 50 ppm active ingredient in the spray liquor
Compound,Efficacy in % of the untreated control [1] [%],"Efficacy in % of the untreated control [2, 3] [%]","Efficacy in % of the untreated control [2, 4] [%]"
"N#Cc1c(Cl)c(Cl)c(Cl)c(C#N)c1Cl [Compound II, Tetrachloroisophthalonitrile, reference compound]",0,0,0
O=C(Nc1ccccc1-c1ccc(Cl)cc1)c1cccnc1Cl [Compound I.2],0,,85
O=C(Nc1ccccc1-c1ccc(F)cc1)c1cccnc1Cl [Compound I.1],0,20,
